DBAASP
≈ marks a conversion by molar mass, not a printed value. Values belong to the compound of their own block, whether it stands above or below them.

Tests used:
Assay in all cases: ≥ marks a high value that may be exact or a test limit, other limits are often not marked, values filed in µg/mL are converted to µM
Cladosporium herbarum = system: Cladosporium herbarum
[1] = system: Xanthomonas vesicatoria DSM 50861
[2] = system: Pseudomonas syringae pv. syringae DSM 10604
Alternaria alternata = system: Alternaria alternata
[3] = system: Pectobacterium carotovorum subsp. carotovorum DSM 30168
[4] = system: Pseudomonas corrugata DSM 7228
Botrytis cinerea = system: Botrytis cinerea
[5] = system: Clavibacter michiganensis subsp. michiganensis DSM 46294
[6] = system: Pseudomonas syringae pv. tomato DC3000
Escherichia coli HB101 = system: Escherichia coli HB101
[7] = system: Staphylococcus aureus ATCC 9144
[8] = system: Pseudomonas aeruginosa ATCC 27853
[9] = system: Escherichia coli ATCC 25922
[10] = system: Corynebacterium glutamicum ATCC 13032
[11] = system: Salmonella enterica subsp. enterica serovar Typhimurium ATCC 14028
[12] = system: Salmonella enterica subsp. enterica serovar Pullorum C79-13
[13] = system: Salmonella enterica subsp. enterica serovar Typhimurium C77-31
[14] = system: Bacillus subtilis ATCC 11060
[15] = system: Enterococcus faecalis ATCC 29212
Escherichia coli ER2566 = system: Escherichia coli ER2566
Escherichia coli UB1005 = system: Escherichia coli UB1005
[16] = system: Staphylococcus epidermidis ATCC 12228
[17] = system: Staphylococcus aureus ATCC 25923
Escherichia coli K88 = system: Escherichia coli K88
[18] = system: Pseudomonas aeruginosa ATCC 10419
Escherichia coli 078 = system: Escherichia coli 078
Escherichia coli 44102 = system: Escherichia coli 44102
[19] = system: Pseudomonas aeruginosa ATCC 21630
[20] = system: Pseudomonas aeruginosa ATCC 21625

MIC (Cladosporium herbarum): 14.7 µM (≈ 20 µg/mL)
MIC [1]: 29.4 µM (≈ 40 µg/mL)
MIC [2]: 29.4 µM (≈ 40 µg/mL)
MIC (Alternaria alternata): ≥ 73.4 µM
MIC [3]: 29.4 µM (≈ 40 µg/mL)
MIC [4]: 7.34 µM (≈ 9.99 µg/mL)
MIC (Botrytis cinerea): ≥ 73.4 µM
MIC [5]: 29.4 µM (≈ 40 µg/mL)
MIC [6]: 3.67 µM (≈ 5 µg/mL)
SMILES: CC(C)C[C@H](NC(=O)[C@H](CCCCN)NC(=O)[C@H](Cc1cnc[nH]1)NC(=O)[C@H](CCCCN)NC(=O)[C@H](CC(C)C)NC(=O)[C@H](C)NC(=O)[C@H](CCCCN)NC(=O)[C@H](C)NC(=O)[C@H](CC(C)C)NC(=O)[C@H](C)NC(=O)[C@H](CCCN=C(N)N)NC(=O)[C@@H](N)CC(C)C)C(N)=O [LRALAKALKHKL]

MIC (Escherichia coli HB101): 12.5 µM (≈ 31.2 µg/mL)
MIC [7]: ≥ 100 µM
MIC [8]: 100 µM (≈ 250 µg/mL)
MIC [9]: 35.4 µM (≈ 88.4 µg/mL)
MIC [10]: 3.1 µM (≈ 7.75 µg/mL)
SMILES: CC[C@H](C)[C@H](NC(=O)[C@@H]1CCCN1C(=O)[C@H](CCCCN)NC(=O)[C@@H]1CCCN1C(=O)[C@H](CCCN=C(N)N)NC(=O)CNC(=O)[C@@H]1CCCN1C(=O)[C@H](Cc1ccccc1)NC(=O)[C@@H]1CCCN1C(=O)[C@H](CCCN=C(N)N)NC(=O)[C@@H]1CCCN1C(=O)[C@H](CCCN=C(N)N)NC(=O)CNC(=O)[C@@H]1CCCN1C(=O)[C@H](CO)NC(=O)[C@@H]1CCCN1C(=O)[C@@H](N)Cc1c[nH]c2ccccc12)C(=O)N[C@@H](Cc1ccccc1)C(=O)N[C@@H](CCCN=C(N)N)C(=O)N1CCC[C@H]1C(=O)N[C@@H](CCCN=C(N)N)C(=O)O [WPSPGRPRPFPGRPKPIFRPR]

MIC [11]: 8 µM (≈ 18.4 µg/mL)
MIC [12]: ≥ 128 µM
MIC [13]: 8 µM
MIC [8]: > 128 µM
MIC [14]: 8 µM (≈ 18.4 µg/mL)
MIC [15]: 4 µM (≈ 9.2 µg/mL)
MIC (Escherichia coli ER2566): 8 µM (≈ 18.4 µg/mL)
MIC (Escherichia coli UB1005): 4 µM (≈ 9.2 µg/mL)
MIC [16]: 8 µM (≈ 18.4 µg/mL)
MIC [17]: 32 µM (≈ 73.6 µg/mL)
MIC (Escherichia coli K88): 4 µM (≈ 9.2 µg/mL)
MIC [18]: 16 µM (≈ 36.8 µg/mL)
MIC (Escherichia coli 078): 4 µM (≈ 9.2 µg/mL)
MIC (Escherichia coli 44102): 8 µM (≈ 18.4 µg/mL)
MIC [19]: 16 µM (≈ 36.8 µg/mL)
MIC [20]: ≥ 32 µM
SMILES: CC[C@H](C)[C@H](NC(=O)[C@H](CCCCN)NC(=O)[C@H](CCCCN)NC(=O)[C@H](CC(C)C)NC(=O)[C@H](CCCN=C(N)N)NC(=O)[C@H](Cc1c[nH]c2ccccc12)NC(=O)[C@H](CCCN=C(N)N)NC(=O)[C@@H](NC(=O)[C@H](CCCCN)NC(=O)[C@H](Cc1c[nH]c2ccccc12)NC(=O)[C@H](CCCN=C(N)N)NC(=O)[C@H](CC(C)C)NC(=O)[C@H](CCCN=C(N)N)NC(=O)[C@H](CCCN=C(N)N)NC(=O)[C@H](Cc1ccccc1)NC(=O)[C@@H](N)CCCN=C(N)N)[C@@H](C)O)C(N)=O [RFRRLRWKTRWRLKKI]
